According to US20080268535A1, “Method for Inducing the Differentiation of Human Myelogenous Leukemia Cells Into Megakarocytes or Thrombocytes” (EWHA University - Industry Collaboration Foundation, priority 2005, published 2008):

Experiments:
Assay type in all cases: cell-based, human
K562 cells [1] = assay: Growth curve of K562 cells (trypan blue viable cell count); conditions: 40 μg/ml, counted every day for 5 days
Protocol: To examine the effect of the compound (R)-NALPCE on cell growth, K562 cells was monitored for growth in the presence thereof. The cells were aliquoted at a density of 1×10^5 cells per well in 6-well plates and treated with 40 μg/ml. After staining with trypan blue, viable cells were counted every day for 5 days.

K562 cells [2] = assay: Binding of FITC-fibrinogen to glycoprotein IIb/IIIa complexes of differentiated K562 cells (FACS); conditions: K562 cells on OP9 cells, 40 μg/ml, 5 days, activated with 100 nM PMA
Text: Bone marrow progenitor cells, such as K562 cells, have glycoprotein IIb/IIIa complexes expressed thereon at a low level, but the number of complexes increases as the cells increase in size according to differentiation into megakaryocytes. By taking advantage of the fact that fibrinogens, which play a key role in blood clotting, bind to activated glycoprotein IIb/IIIa (GP IIb/IIIa) complex, the differentiation of K562 cells into megakaryocytes by (R)-NALPCE was investigated.
A process similar to that of Experimental Example 8 was conducted. OP9 cells were aliquoted at a density of 1×10^5 cells in 6-well plates and incubated for 24 hrs. After the OP9 cells were uniformly attached onto the bottom of the plates, K562 cells were layered at a density of 1×10^5 cells over the OP9 cells in 6-well plates. The cells were treated with 40 μg/ml of (R)-NALPCE before incubation in a day-dependent manner for 5 days. The (R)-NALPCE-treated K562 cells were transferred to 60 mm-dishes everyday and treated with 100 nM of PMA for 30 min to activate glycoprotein IIb/IIIa complexes. The cells thus differentiated were collected and suspended in 50 μl of PBS. […] Following the addition of […] of PBS, the amount of fibrinogen bound to the surface of the activated K562 cells was quantitatively determined as fluorescence was analyzed on a fluorescence-activated cell sorter (FACS) (Aria) using a Cellquest program.

HEL cells [3] = assay: Cell differentiation of HEL cells, optical microscopy; conditions: 5 μg/ml (R)-NALPCE, 10 nmole PMA or 50 ng/ml TPO, 5 days
Protocol: HEL cells were aliquoted at a density of 3×10^5 cells per well in 6-well plates and treated with 5 μg/ml of (R)-NALPCE, 10 nmole of PMA, or 50 ng/ml of TPO, followed by incubation in a day-dependent manner for 5 days. They were observed under an optical microscope with 200× magnification.

HEL cells [4] = assay: Megakaryocyte differentiation, CD41/CD61 expression over time by FACS, HEL cells; conditions: 5 μg/ml, 5 days
Protocol: HEL cells were aliquoted at a density of 3×10^5 cells per well in 6-well plates and treated with 5 μg/ml of (R)-NALPCE, followed by incubation for 5 days. After centrifugation (1,000 rpm, 5 min), the cell pellets thus obtained were washed three times with 0.01% bovine serum albumin (BSA) in PBS. The cells were incubated with 10 μl of anti-CD41-fluorescein-5-isothiocyanate (FITC) (Dako Chemicals, Carpenteria, Calif.) or 20 μl of anti-CD61-phycoerythrin (PE) (BD Pharmingen) in 200 μl 0.01% bovine serum albumin (BSA)-PBS at 4° C. for 50 min with spinning to realize homogeneous fluorescent staining. After centrifugation (1,000 rpm, 10 min), the cell pellets thus obtained were rinsed three times with 0.01% bovine serum albumin (BSA)-PBS. Fluorescence was analyzed on a fluorescence-activated cell sorter (FACS) (Aria) using a Cellquest program.

K562 cells [5] = assay: Differentiation inductivity, lineage receptor expression by FACS, K562 cells; conditions: K562 cells, 40 μg/ml (R)-NALPCE or 30 nM PMA, 4 days
Protocol: K562 cells were aliquoted at a density of 2×10^5 per well in 6-well plates and treated with 40 μg/ml of (R)-NALPCE or 30 nM of PMA (12-phorbol myristate-13-acetate, Calbiochem.), followed by incubation for 4 days. After centrifugation (1,000 rpm, 10 min), the cell pellets thus obtained were washed three times with 0.01% bovine serum albumin (BSA) in PBS. The cells were incubated with 10 μl of anti-CD41-fluorescein-5-isothiocyanate (FITC) (Dako Chemicals, Carpenteria, Calif.), 20 μl of anti-CD16-Cy-Chrome (Cy) (BD Pharmingen), 10 μl of anti-glycophorin ACD235a-phycoerythrin (PE) (Dako Chemicals, Carpenteria, Calif.), and 20 μl of anti-CD14-allophycocyanin (APC) (BD Pharmingen) in 200 μl of 0.01% bovine serum albumin (BSA)-PBS at 4° C. for 50 min while spinning to realize homogeneous fluorescent staining. After centrifugation (1,000 rpm, 10 min), the cell pellets thus obtained were washed three times with 0.01% bovine serum albumin (BSA) in PBS. Fluorescence was analyzed on a fluorescence-activated cell sorter (FACS) (Aria) using a Cellquest program.

K562 cells [6] = assay: Megakaryocyte differentiation, CD41/CD61 expression over time by FACS, K562 cells; conditions: 40 μg/ml, 4 days
Protocol: K562 cells were aliquoted at a density of 2×10^5 cells per well in 6-well plates and treated with 40 μg/ml of (R)-NALPCE, followed by incubation for 4 days. After centrifugation (1,000 rpm, 5 min), the cell pellets thus obtained were washed three times with 0.01% bovine serum albumin (BSA) in PBS. Incubation with 10 μl of anti-CD41-fluorescein-5-isothiocyanate (FITC) (Dako Chemicals, Carpenteria, Calif.) or 20 μl of anti-CD61-phycoerythrin (PE) (BD Pharmingen) in 200 μl of 0.01% bovine serum albumin (BSA)-PBS was conducted at 4° C. for 50 min with spinning to realize homogeneous fluorescent staining. Following centrifugation (1,000 rpm, 10 min), the cell pellets thus obtained were rinsed three times with 0.01% bovine serum albumin (BSA) in PBS. Fluorescence was analyzed on a fluorescence-activated cell sorter (FACS) (Aria) using a Cellquest program.

K562 cells [7] = assay: Production of thrombocytes, K562 cells on OP9 cells, optical microscopy; conditions: 40 μg/ml
Protocol: An experiment was conducted in a manner similar to that of Example 7. OP9 cells were aliquoted at a density of 1×10^5 cells per well in 6-well plates and incubated for 24 hrs. After OP9 cells were uniformly attached onto the bottom of the plates, K562 cells were layered at a density of 1×10^5 cells per well over the OP cells in the 6-well plates. Treatment with 40 μg/ml of (R)-NALPCE was conducted before incubation in a day-dependent manner for 5 days. They were observed under an optical microscope with 200× magnification.

CCCCCCCCCCCCCCCCCC(=O)NC(COP(=O)([O-])OCC[N+](C)(C)C)C(=O)OC [(R)-NALPCE, N-steroyl-O-phosphocholine-D-serine methyl ester]
cell growth curve (viable cells) (K562 cells [1]): relatively low cell growth curve
fluorescence of fibrinogens bound to glycoprotein IIb/IIIa complexes (K562 cells [2]): increase in a day-dependent manner
cell morphology (optical microscope) (HEL cells [3]): increase in size in a day-dependent manner
CD41 and CD61 expression rate (HEL cells [4]): increase in expression rate in a day-dependent manner
expression of CD41, CD16, glycophorin A and CD14 receptors (K562 cells [5]): CD41 and CD16 were specifically expressed
CD41 and CD61 expression rate (K562 cells [6]): increase in expression rate in a time-dependent manner
cell size (optical microscope) (K562 cells [7]; 5 days): increased in size in a time-dependent manner
appearance of anucleate cells (K562 cells [7]; from Day 4 after the treatment): anucleate cells, such as thrombocytes, were observed
